Test results published in patent publication US5322858A, “N,N'-substituted imidodicarbonimidic diamides derived from hydroxylamines” (Jacobus Pharmaceutical Co. Inc., priority 1992, dated 1994).
In brackets after ≈: the same amount, converted by molar mass.

Tests used:
Pneumocystis carinii [1] = test: Prevention of Pneumocystis carinii infection in immunosuppressed rats; assay type: in vivo; conditions: 125 mg/kg daily
Method: In this method rats are immunosuppressed with high doses of glucocorticosteroids while being protected from bacterial infection by concurrent administration of the antibiotic tetracycline. In a standard evaluation animals are immunosuppressed with steroids and various doses of test compounds are administered for six weeks during which time unprotected animals will develop pneumocystis pneumonitis. The percentage of animals free of the disease represents the effectiveness of a selected dose of test drug.
A customary method to produce pneumocystis in the animals is to administer 2 mg of dexamethasone and 50 mg tetracycline hydrochloride per liter of drinking water. The test compounds are integrated in the food.

M. avium (MAC) = test: Broth dilution MIC against Mycobacterium avium complex isolates; assay type: cell-based; conditions: 168 h
Method: (§1) Testing of new drugs for activity against Mycobacterial infections is carried out in vitro and in vivo in well defined laboratory procedures which have been widely published. The method used to test for biological activity against growing Mycobacterium avium complex (MAC), Mycobacterium tuberculosis (MTB) and Mycobacterium kanasii (MK) are described by A. H. Gonzalez et al. in J. Antimicrob. Chemother. 1989, 24:19-22; S. Majumder and M. H. Cynamon, Amer. Soc. for Microbiology Mtgs, U-4, May 1992, abstract.
(§2) Activity in vitro was determined against clinical isolates of MAC, MTB and MK using a broth dilution method. Mycobacteria were grown for several days in 7H10 broth, ph 6.6, with 10% OADC enrichment and 0.05% Tween 80. Serial two-fold dilutions of antimicrobial drugs were prepared in 7H10 broth at 128 μg/ml and less. Cultures containing a final concentration of approximately 2.5×10^4 to 6.3×10^5 CFU/ml were incubated on a rotary shaker at 37° C. for 7 days and read where the minimum inhibitory concentration was defined as the MIC at the lowest concentration without visual turbidity. JPC7766 in these studies was compared to known active antimicrobial drugs Proguanil (PG), Cycloguanil (CG), Sulfamethazine (SM) and/or Dapsone (DDS).

Pneumocystis carinii [2] = conditions: 125 mg/kg; cited from earlier work
P. berghei = P. berghei infection in mice, injected vs. oral doses, 50% cure (Table 2)
Excerpt: Comparative tests in vivo in mice against Plasmodium have been carried out. […] Premature deaths of animals (earlier than five days post infection) are considered as indications of toxicity.
These tests systems are described in detail in publications by L. Rane and D. S. Rane, 9th Int. […] Trop. Med. Malaria. (1973) 1:281 (#406) and (2) T. S. Osdedne, P. B. Russell and L. Rane, J. Med. Chem. 1967. 10:431.
In this methodology, groups of 5 or 10 mice are infected with a standard inoculum of a blood-induced P. berghei infection and are treated with a single subcutaneous dose ([…]) of test drug suspended in peanut oil or a single oral dose of test drug suspended in hexamethyl cellulose and Tween. The animals are then observed for a maximum of thirty days. […] Animals surviving for thirty days are considered cured.

M. kanasii (MK) = test: Broth dilution MIC against M. kanasii isolate; assay type: cell-based; conditions: 168 h
Method: as §1, §2

M. tuberculosis (MTB) = test: Broth dilution MIC against M. tuberculosis isolates; assay type: cell-based; conditions: Mycobacterium tuberculosis, 168 h
Method: as §1, §2

Structure (SMILES) | MIC (M. avium (MAC); isolate MAC 101) [µg/mL] | MIC (M. avium (MAC); isolate MAC FAR) [µg/mL] | MIC (M. avium (MAC); isolate MAC LPR) [µg/mL] | MIC (M. kanasii (MK)) [µg/mL] | MIC (M. tuberculosis (MTB); isolate MTB 311) [µg/mL] | MIC (M. tuberculosis (MTB); H37RV, isolate MTB H37 Rv) [µg/mL] | also measured
Nc1ccc(S(=O)(=O)c2ccc(N)cc2)cc1 [Dapsone] | 16 (≈ 64.4 µM) | 64 (≈ 258 µM) | 32 (≈ 129 µM) | – | – | – | Efficacy (Pneumocystis carinii [1]): 100%; # infected (Pneumocystis carinii [1]; infected/treated): 0/10; protection from pneumocystis (Pneumocystis carinii [2]): fully effective
CC1(C)N=C(N)N=C(N)N1OCCCOc1cc(Cl)c(Cl)cc1Cl [WR99210] | – | – | – | – | – | – | ED50 (P. berghei; Plasmodium berghei, in Mus musculus, sc, read-out: 50% cure, injected SQ ED-50): 245 mg/kg; Cures (P. berghei; oral (PO), @ 640 mg/kg): No Cures
Cc1cc(C)nc(NS(=O)(=O)c2ccc(N)cc2)n1 [Sulfamethazine] | > 128 | 16 (≈ 57.5 µM) | 32 (≈ 115 µM) | 64 (≈ 230 µM) | 64 (≈ 230 µM) | 64 (≈ 230 µM) | –
CC1(C)N=C(N)N=C(N)N1c1ccc(Cl)cc1 [Cycloguanil] | – | – | > 128 | 64 (≈ 254 µM) | 64 (≈ 254 µM) | 64 (≈ 254 µM) | –
[H]/N=C(\N/C(=N/[H])Nc1ccc(Cl)cc1)NC(C)C [Proguanil] | > 128 | 64 (≈ 252 µM) | 128 (≈ 504 µM) | – | – | – | Toxicity (P. berghei; oral (PO), @ >160 mg/kg): Toxic; 50% cures; oral PO ED-50 (P. berghei; single oral dose): No Cures; 50% cure; injected SQ ED-50 (P. berghei; subcutaneous, in peanut oil): NO CURES
